Source: US11883821B2, “Fluidic device for the detection, capture, or removal of a disease material” (Vanderbilt University, priority 2016, dated 2024)

Columns and labels:
[1] = system: red blood cell; assay type: cell-based, human
Description: This process was repeated for the PEGylated device. Red blood cell lysis was then analyzed to determine release of free hemoglobin in plasma. Plasma hemoglobin was measured by according to well-established protocols. Following passage through the device, the blood samples were centrifuged (500×g) and the supernatant was spectrophotometrically analyzed for hemoglobin release using a plate-reader (Tecan, Infinite M1000 Pro) at 451 nm in order to determine percent hemolysis relative to the Triton-X positive control. Triton X-100 (Sigma-Aldrich) was diluted in diH2O to result in a 20 v/v % Triton-X detergent concentration, which served as the positive control. The negative control used was EDTA-anticoagulated whole, human blood that was not flowed through a double spiral microfluidic device (i.e. untreated). Percent of hemoglobin release was calculated according to the following equation: Hemoglobin release (%)=[(Sample451nm−Negative control451nm=)/(Positive control451nm−Negative control451nm)]×100%. Complete blood counts of each sample (i.e. untreated, colistinated device, PEGylated device) were performed by the Vanderbilt University Translational Pathology Shared Resource Core.

[2] = system: Acinetobacter baumannii 'Patient 2'; experiment: Colistin MIC by standard agar dilution; assay type: cell-based; settings: colistin-resistant isolate
Description: Bacterial cultures (i.e., Acinetobacter baumannii ATCC17978, Colistin-resistant Acinetobacter baumannii 19606R^41. Colistin-resistant Acinetobacter baumannii-Patient 2′. Klebsiella pneumoniae ATCC700603. Bacillus subtilis 1A578 (Bacillus Genetic Stock Center), Staphylococcus aureus ATCC29213) were plated on LB agar (Sigma-Aldrich, Lot #SLBR1403V) and grown overnight at 37° C. Single colonies of each strain were then inoculated in LB broth (IX) (Gibco, Lot #1803272) and grown at 37° C. for 18 hours shaking at 150 rpm. Cell concentrations were measured with OD595 spectrometry (Infinite F500. Tecan).
Colistin minimum inhibitory concentrations (MIC) of bacterial strains were confirmed by standard agar dilution methods. Results were interpreted according to the Clinical and Laboratory Standards Institute susceptibility breakpoints.

| Substance | Hemolysis (%) [1] | Colistin MIC [2] |
| --- | --- | --- |
| Triton X-100 [Positive control (20 v/v % Triton-X)] | 100% ± 3.08% |  |
| Colistin |  | >256 µg/mL |
